Measurements published in ChEMBL document CHEMBL4312022, “Design, synthesis, and biological evaluation of ligustrazine - betulin amino-acid/dipeptide derivatives as anti-tumor agents” (Eur J Med Chem, 2020).

Key:
[1] = test system: HepG2; assay: Antiproliferative activity against human HepG2 cells assessed as reduction in cell viability after 72 hrs by MTT assay; format: functional, cell-based; settings: HepG2, 72 h
[2] = test system: BGC-823; assay: Antiproliferative activity against human BGC823 cells assessed as reduction in cell viability after 72 hrs by MTT assay; format: functional, cell-based; settings: BGC-823, 72 h
[3] = test system: HeLa; assay: Antiproliferative activity against human HeLa cells assessed as reduction in cell viability after 72 hrs by MTT assay; format: functional, cell-based
[4] = test system: HT-29; assay: Antiproliferative activity against human HT-29 cells assessed as reduction in cell viability after 72 hrs by MTT assay; format: functional, cell-based; settings: HT-29, 72 h
[5] = test system: MDCK; assay: Cytotoxicity against MDCK cells assessed as reduction in cell viability after 72 hrs by MTT assay; format: cell-based; settings: Canis lupus familiaris

Row | Compound | IC50 [1] | IC50 [2] | IC50 [3] | IC50 [4] | IC50 [5]
1 | C=C(C)[C@@H]1CC[C@]2(COC(=O)c3nc(C)c(C)nc3C)CC[C@]3(C)[C@H](CC[C@@H]4[C@@]5(C)CC[C@H](OC(=O)[C@@H](N)CC(C)C)C(C)(C)[C@@H]5CC[C@]43C)[C@@H]12 | > 20 µM | > 20 µM | > 20 µM | > 20 µM | > 20 µM
2 | C=C(C)[C@@H]1CC[C@]2(COC(=O)c3nc(C)c(C)nc3C)CC[C@]3(C)[C@H](CC[C@@H]4[C@@]5(C)CC[C@H](OC(=O)CNC(=O)[C@@H]6CCCN6C(C)=O)C(C)(C)[C@@H]5CC[C@]43C)[C@@H]12 | > 20 µM | 8.15 µM | 10.1 µM | 12.3 µM | 19.8 µM
3 | C=C(C)[C@@H]1CC[C@]2(COC(=O)c3nc(C)c(C)nc3C)CC[C@]3(C)[C@H](CC[C@@H]4[C@@]5(C)CC[C@H](OC(=O)[C@@H]6CCCN6C(=O)CNC(C)=O)C(C)(C)[C@@H]5CC[C@]43C)[C@@H]12 | 18.4 µM | 18.9 µM | 17.9 µM | 14.7 µM | 18.9 µM
4 | C=C(C)[C@@H]1CC[C@]2(CO)CC[C@]3(C)[C@H](CC[C@@H]4[C@@]5(C)CC[C@H](O)C(C)(C)[C@@H]5CC[C@]43C)[C@@H]12 [BETULIN] | > 20 µM | > 20 µM | 12.2 µM | > 20 µM | > 20 µM
5 | C=C(C)[C@@H]1CC[C@]2(COC(=O)c3nc(C)c(C)nc3C)CC[C@]3(C)[C@H](CC[C@@H]4[C@@]5(C)CC[C@H](OC(=O)[C@@H](N)C(C)C)C(C)(C)[C@@H]5CC[C@]43C)[C@@H]12 | > 20 µM | > 20 µM | > 20 µM | > 20 µM | > 20 µM
6 | C=C(C)[C@@H]1CC[C@]2(COC(=O)c3nc(C)c(C)nc3C)CC[C@]3(C)[C@H](CC[C@@H]4[C@@]5(C)CC[C@H](OC(=O)CN(C)C(=O)CNC(C)=O)C(C)(C)[C@@H]5CC[C@]43C)[C@@H]12 | > 20 µM | 10.3 µM | 7.96 µM | > 20 µM | > 20 µM
7 | C=C(C)[C@@H]1CC[C@]2(COC(=O)c3nc(C)c(C)nc3C)CC[C@]3(C)[C@H](CC[C@@H]4[C@@]5(C)CC[C@H](O)C(C)(C)[C@@H]5CC[C@]43C)[C@@H]12 | 13.6 µM | 15 µM | 18.5 µM | 16.3 µM | > 20 µM
8 | C=C(C)[C@@H]1CC[C@]2(COC(=O)c3nc(C)c(C)nc3C)CC[C@]3(C)[C@H](CC[C@@H]4[C@@]5(C)CC[C@H](OC(=O)[C@@H](N)Cc6ccccc6)C(C)(C)[C@@H]5CC[C@]43C)[C@@H]12 | > 20 µM | > 20 µM | > 20 µM | > 20 µM | > 20 µM
9 | C=C(C)[C@@H]1CC[C@]2(COC(=O)c3nc(C)c(C)nc3C)CC[C@]3(C)[C@H](CC[C@@H]4[C@@]5(C)CC[C@H](OC(=O)CNC)C(C)(C)[C@@H]5CC[C@]43C)[C@@H]12 | 5.93 µM | 8.23 µM | 7.88 µM | 7.92 µM | 14.6 µM
10 | C=C(C)[C@@H]1CC[C@]2(COC(=O)c3nc(C)c(C)nc3C)CC[C@]3(C)[C@H](CC[C@@H]4[C@@]5(C)CC[C@H](OC(=O)[C@@H]6CCCN6C(=O)CCNC(C)=O)C(C)(C)[C@@H]5CC[C@]43C)[C@@H]12 | > 20 µM | > 20 µM | 10.4 µM | > 20 µM | > 20 µM
11 | C=C(C)[C@@H]1CC[C@]2(COC(=O)c3nc(C)c(C)nc3C)CC[C@]3(C)[C@H](CC[C@@H]4[C@@]5(C)CC[C@H](OC(=O)CNC(=O)CCNC(C)=O)C(C)(C)[C@@H]5CC[C@]43C)[C@@H]12 | > 20 µM | 7.62 µM | 6.72 µM | > 20 µM | 15.8 µM
12 | C=C(C)[C@@H]1CC[C@]2(COC(=O)c3nc(C)c(C)nc3C)CC[C@]3(C)[C@H](CC[C@@H]4[C@@]5(C)CC[C@H](OC(=O)[C@@H]6CCC(=O)N6)C(C)(C)[C@@H]5CC[C@]43C)[C@@H]12 | 16.5 µM | 8.62 µM | 19.4 µM | 15.3 µM | 16.7 µM
13 | C=C(C)[C@@H]1CC[C@]2(COC(=O)c3nc(C)c(C)nc3C)CC[C@]3(C)[C@H](CC[C@@H]4[C@@]5(C)CC[C@H](OC(=O)CN(C)C(=O)[C@@H]6CCCN6C(C)=O)C(C)(C)[C@@H]5CC[C@]43C)[C@@H]12 | > 20 µM | 7.93 µM | 10.5 µM | 9.71 µM | > 20 µM
14 | C=C(C)[C@@H]1CC[C@]2(COC(=O)c3nc(C)c(C)nc3C)CC[C@]3(C)[C@H](CC[C@@H]4[C@@]5(C)CC[C@H](OC(=O)[C@@H](N)[C@@H](C)CC)C(C)(C)[C@@H]5CC[C@]43C)[C@@H]12 | > 20 µM | > 20 µM | > 20 µM | 16.6 µM | > 20 µM
15 | C=C(C)[C@@H]1CC[C@]2(COC(=O)c3nc(C)c(C)nc3C)CC[C@]3(C)[C@H](CC[C@@H]4[C@@]5(C)CC[C@H](OC(=O)[C@@H]6CCCN6)C(C)(C)[C@@H]5CC[C@]43C)[C@@H]12 | 19.6 µM | 10.4 µM | 17.2 µM | 15 µM | 17.6 µM
16 | C=C(C)[C@@H]1CC[C@]2(COC(=O)c3nc(C)c(C)nc3C)CC[C@]3(C)[C@H](CC[C@@H]4[C@@]5(C)CC[C@H](OC(=O)CN(C)C(=O)CCNC(C)=O)C(C)(C)[C@@H]5CC[C@]43C)[C@@H]12 | 11 µM | 6.94 µM | 4.13 µM | 12.5 µM | 18.6 µM
17 | C=C(C)[C@@H]1CC[C@]2(COC(=O)c3nc(C)c(C)nc3C)CC[C@]3(C)[C@H](CC[C@@H]4[C@@]5(C)CC[C@H](OC(=O)[C@@H]6CCCN6C(=O)[C@@H]6CCCN6C(C)=O)C(C)(C)[C@@H]5CC[C@]43C)[C@@H]12 | > 20 µM | > 20 µM | 11.1 µM | > 20 µM | > 20 µM
18 | C=C(C)[C@@H]1CC[C@]2(COC(=O)c3nc(C)c(C)nc3C)CC[C@]3(C)[C@H](CC[C@@H]4[C@@]5(C)CC[C@H](OC(=O)CNC(=O)CNC(C)=O)C(C)(C)[C@@H]5CC[C@]43C)[C@@H]12 | > 20 µM | 7.85 µM | > 20 µM | 11.2 µM | 14.5 µM
19 | C=C(C)[C@@H]1CC[C@]2(COC(=O)c3nc(C)c(C)nc3C)CC[C@]3(C)[C@H](CC[C@@H]4[C@@]5(C)CC[C@H](OC(=O)[C@H](C)N)C(C)(C)[C@@H]5CC[C@]43C)[C@@H]12 | 10.1 µM | 7.83 µM | 9.22 µM | 9.29 µM | 18.5 µM
